# According to patent publication US6953577B2, “Human methionine aminopeptidase type 3” (Pharmacia Corporation, priority 1999, dated 2005):
# How the values were obtained:
# [1] = test system: endothelial cell proliferation; conditions: cited from earlier work
# [2] = molecular target: recombinant human MetAP-1 (Homo sapiens, UniProt P53582); assay: Methionine aminopeptidase activity assay (methionine release from tripeptide, coupled L-amino acid oxidase/Amplex Red)
# Description: (§1) Hydrogen peroxide, produced by the L-amino acid oxidase reaction, was measured by monitoring the formation of resorufin from Amplex Red in a reaction catalyzed by of horseradish peroxidase. […] The reaction was performed in a 96-well plate format at ambient temperature using the following assay buffer: 20 mM HEPES-Na pH 7.5, 100 mM NaCl, 0.1 mM CoCl2 containing 100 μM Amplex Red, 0.15 U/ml L-amino acid oxidase, 0.5 U/ml horseradish peroxidase.
# (§2) The ability of fumagillin to inhibit each of the recombinant human MetAPs was determined by adding 0.6 nM-500 μM fumagillin at the start of the reaction. The IC50 values were determined under conditions in which enzyme concentration and reaction time were linear.
# [3] = molecular target: T1, MetAP-2 (Homo sapiens, UniProt P50579); assay: as above
# Description: as §1, §2
# Target sequence in this assay (P50579 whole entry): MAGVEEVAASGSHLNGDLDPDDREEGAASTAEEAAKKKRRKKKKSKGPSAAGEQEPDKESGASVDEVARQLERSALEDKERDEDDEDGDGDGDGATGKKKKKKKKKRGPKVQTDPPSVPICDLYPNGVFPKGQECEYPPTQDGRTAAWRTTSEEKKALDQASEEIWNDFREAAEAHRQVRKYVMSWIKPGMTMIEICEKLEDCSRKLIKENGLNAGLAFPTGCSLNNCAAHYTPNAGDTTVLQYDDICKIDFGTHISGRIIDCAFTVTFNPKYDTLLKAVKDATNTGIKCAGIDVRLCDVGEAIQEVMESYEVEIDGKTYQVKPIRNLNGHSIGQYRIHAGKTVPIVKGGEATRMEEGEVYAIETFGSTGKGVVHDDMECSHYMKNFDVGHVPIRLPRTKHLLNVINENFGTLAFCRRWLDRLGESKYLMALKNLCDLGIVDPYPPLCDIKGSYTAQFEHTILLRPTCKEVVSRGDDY
# [4] = molecular target: T2, recombinant human MetAP-3 (Homo sapiens, UniProt Q6UB28); assay: as above; assay type: biochemical; conditions: for Cleaved / Vmax: tripeptide as substrate of recombinant human MetAP-3
# T2 construct: The coding region of hMetAP-3 was also cloned into the EcoRI/HindIII sites of the pET43a vector and expressed as a fusion protein; NusA (N, cleaved yes); 6xHis (N, cleaved yes); made in house; host or cells: E. coli Tuner (DE3)plysS, pET43a
# Description: as §1, §2
# [5] = molecular target: type-1 enzyme (MetAP-1) (Homo sapiens, UniProt P53582); conditions: cited from earlier work
# [6] = molecular target: T1, MetAP-2; conditions: cited from earlier work
# Target sequence in this assay (P50579 whole entry, species assumed): as the sequence (P50579 whole entry) above
# [7] = in vivo, cited from earlier work
# T2 sequence (Q6UB28 20-335): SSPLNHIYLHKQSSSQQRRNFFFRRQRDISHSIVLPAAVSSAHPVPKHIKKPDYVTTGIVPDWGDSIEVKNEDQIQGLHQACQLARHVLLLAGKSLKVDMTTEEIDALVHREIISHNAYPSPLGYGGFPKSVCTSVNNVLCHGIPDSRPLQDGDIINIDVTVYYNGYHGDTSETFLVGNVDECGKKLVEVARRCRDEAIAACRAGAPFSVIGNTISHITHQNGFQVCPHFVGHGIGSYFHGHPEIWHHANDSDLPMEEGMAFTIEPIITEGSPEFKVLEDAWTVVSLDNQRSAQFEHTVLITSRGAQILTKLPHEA
Molecule,Inhibition of type-1 enzyme (in words) [5],Binding and inhibition of MetAP-2 (in words) [6],Cleaved [4],Vmax [4] [Abs × 1000/min],also measured
"CO[C@@H]1[C@H](OC(=O)/C=C/C=C/C=C/C=C/C(=O)O)CC[C@]2(CO2)[C@H]1[C@@]1(C)O[C@@H]1CC=C(C)C [Fumagillin, fumagillin]",but not the type-1 enzyme,irreversibly bind and potently inhibit,–,–,Inhibition of endothelial cell proliferation (in words) [1]: potent inhibitor of endothelial cell proliferation; IC50 [2]: 33 µM; IC50 [3]: 0.005 µM; Inhibition of MetAP-3 by fumagillin (in words) [4]: not inhibited by fumagillin; IC50 ([4]; read-out: Fumagillin IC50): > 500 µM
CO[C@@H]1[C@H](OC(=O)NC(=O)CCl)CC[C@]2(CO2)[C@H]1[C@@]1(C)O[C@@H]1CC=C(C)C [TNP-470],but not the type-1 enzyme,irreversibly bind and potently inhibit,–,–,Potency relative to fumagillin [1]: 50 fold; Oral availability (in words) ([7]; po): lack of oral availability; Toxicity (in words) [7]: dose-limiting neurotoxicity
CO[C@@H]1C(=O)CC[C@]2(CO2)[C@@]1(O)[C@@]1(C)O[C@@H]1CC=C(C)C [ovalicin],but not the type-1 enzyme,–,–,–,–
GGG: synthesized tripeptide evaluated as substrate for MetAP-3,–,–,No,0.7,–
MEG: synthesized tripeptide evaluated as substrate for MetAP-3,–,–,cannot cleave and No,1.1,–
MGG: synthesized tripeptide evaluated as substrate for MetAP-3,–,–,cleaved and Yes,134,Activity with MGG relative to MAS as substrate [4]: twice as high
